From PMC3119665, “A New Drug Design Targeting the Adenosinergic System for Huntington's Disease” (PLoS ONE, 2011)

How the values were obtained:
[1] = system: PC12 cells; assay: MTT metabolism assay, serum-deprived PC12 cells; type: cell-based, rat; conditions: 24 h
Experimental: Survival was assessed by the 3-(4,5-dimethylthiazol-2-yl)-2,5-diphenyltetrazolium bromide (MTT) metabolism assay as described elsewhere, [65]. In brief, cells grown on 150-mm plates were washed three times with PBS and resuspended in DMEM. Suspended cells (1×10^4 cells) were plated on 96-well plates and treated with or without the indicated reagent. After incubation for 24 h, MTT (0.5 mg/ml) was added to the medium and incubated for 3 h. After discarding the medium, DMSO (100 µl) was then applied to the well to dissolve the formazan crystals derived from the mitochondrial cleavage of the tetrazolium ring by live cells. The absorbance at 570/630 nm in each well was measured on a micro-enzyme-linked immunosorbent assay reader.

[2] = system: R6/2 mice; conditions: cited from earlier work
[3] = target: Adenosine transporter (ENT1); conditions: ENT1 inhibitor reference value; no reference given; cited from earlier work
[4] = target: T1, A2AR (Rattus norvegicus, UniProt P30543); assay: cAMP assay in PC12 cells; type: cell-based; conditions: PC12 cells, T1-11 10 µM, SCH 1 µM, 20 min
T1 construct: Treatment of PC12 cells with T1-11 dose-dependently elevated the cellular cAMP levels; endogenous in cells; host or cells: PC12
T1 sequence (P30543 whole entry): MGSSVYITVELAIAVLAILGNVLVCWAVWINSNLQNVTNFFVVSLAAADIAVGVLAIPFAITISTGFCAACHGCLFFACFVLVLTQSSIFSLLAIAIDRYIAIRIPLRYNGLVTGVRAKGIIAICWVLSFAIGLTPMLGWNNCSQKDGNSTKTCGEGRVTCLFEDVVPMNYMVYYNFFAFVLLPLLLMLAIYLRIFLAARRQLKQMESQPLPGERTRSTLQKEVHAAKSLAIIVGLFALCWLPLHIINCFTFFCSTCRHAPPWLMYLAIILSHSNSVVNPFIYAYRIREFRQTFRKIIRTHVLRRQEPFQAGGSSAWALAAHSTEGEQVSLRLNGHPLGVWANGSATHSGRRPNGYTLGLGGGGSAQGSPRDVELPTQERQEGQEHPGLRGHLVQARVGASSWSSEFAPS
Experimental: PC12 cells were plated at the density of 5×10^5 cells/well (on 12-well plates) and incubated with the indicated reagent(s) for the desired period of time. Cells were washed twice with ice-cold Locke's solution (150 mM NaCl, 5.6 mM KCl, 5 mM glucose, 1 mM MgCl2, and 10 mM HEPES, adjusted to pH 7.4). Cellular cAMP was extracted by adding 0.3 ml of 0.1 M HCl to each well and incubating this for 10 min on ice.

## Nc1nc(NCCc2ccc(O)cc2)nc2nc(-c3ccco3)nn12 [ZM241385]
[1]
  Effect of A2AR antagonist on T1-11's prevention of serum deprivation-induced death: blocked the effect of T1-11

## CCNC(=O)[C@H]1O[C@@H](n2cnc3c(N)nc(NCCc4ccc(CCC(=O)O)cc4)nc32)[C@H](O)[C@@H]1O [CGS]
[2]
  Effects on major HD symptoms (brain atrophy, striatal aggregates, deteriorated motor coordination): provides beneficial effects on several major HD symptoms

## O=[N+]([O-])c1ccc(CSc2ncnc3c2ncn3[C@@H]2O[C@H](CO)[C@@H](O)[C@H]2O)cc1 [NBTI, 6-[(4-nitrobenzyl)thio]-9-β-D-ribofuranosylpurine]
[3]
  Ki: 0.85 nM

## Nc1nc2c(cnn2CCc2ccccc2)c2nc(-c3ccco3)nn12 [SCH58216]
[1]
  Effect of A2AR antagonist on T1-11's prevention of serum deprivation-induced death: blocked the effect of T1-11
[2]; treatment for 1 week
  Motor coordination: worsened motor coordination
[4]
  Effect on T1-11-induced elevation in the cAMP level: effectively blocked the T1-11-induced elevation in the cAMP level
